The assay deals with T1, GPR7 (Homo sapiens, UniProt P48145).
T1 sequence (P48145 1-328): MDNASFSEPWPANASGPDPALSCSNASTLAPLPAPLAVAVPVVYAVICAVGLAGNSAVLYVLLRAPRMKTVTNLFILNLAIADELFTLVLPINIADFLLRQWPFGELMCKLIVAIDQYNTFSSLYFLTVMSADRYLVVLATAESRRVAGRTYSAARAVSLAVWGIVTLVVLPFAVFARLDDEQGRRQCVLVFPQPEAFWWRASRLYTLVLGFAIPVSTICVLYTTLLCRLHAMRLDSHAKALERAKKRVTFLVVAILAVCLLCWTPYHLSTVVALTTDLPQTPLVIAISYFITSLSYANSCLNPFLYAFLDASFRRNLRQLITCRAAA
Description: Test on binding inhibition of various peptides against human GPR7-expressed CHO cell membrane fraction. As to conditions: iodine-labeled hGPR7L-23; human GPR7-expressed CHO cell membrane fraction 1 μg/well; room temperature 1.5 hour. Also noted: The synthetic primers were constructed so as to amplify the gene in the region to be translated to its receptor protein; expressed in transfected cells; host or cells: CHO cells, membrane fraction. The procedure:
A mixture of 20 μl of hGPR7L-23 (SEQ ID NO:1) (0.1 mM or 1 mM), 20 μl of lactoperoxidase (Sigma; prepared using 10 μg/ml and 0.1M HEPES-NaOH pH7.0), 20 μl of Idoine-125 (manufactured by Amersham, MS-30, 74 MBq), 20 μl of 0.005% hydrogen peroxide (manufactured by Wako Pure Chemical Industries, Ltd.) was allowed to stand at room temperature for 20 to 30 minutes. Then, 600 μl of 0.1% TFA was added to the mixture. The mixture was applied to reverse phase HPLC for separation and the peaks of the two'labeled products were fractionated in a tube charged with 1 mL of DMSO. Immediately, the fraction was stored on ice and an aliquot was provided for measurement of the radioactivity with a γ-counter. The remaining preparation was dispensed and stored at −30° C.
Human GPR7-expressed CHO cells were cultured in a flask. The flask was washed with 5 mM EDTA/PBS to strip the cells off. The cells were stripped off with 5 mM EDTA/PBS and centrifuged for recovery. The recovered cells were suspended in 25 mL of a buffer for preparing membrane fraction (50 mM Tris-HCl, pH7.5, 5 mM EDTA, 0.1% bovine serum albumin (manufactured by Sigma), 0.5 mM PMSF (manufactured by Wako Pure Chemical Industries, Ltd.), 20 μg/mL leupeptin (manufactured by Peptide Research Institute), 0.1 μg/mL pepstatin A (manufactured by Peptide Research Institute) and 4 μg/mL E-64 (manufactured by Peptide Research Institute)), followed by homogenization on ice using a polytron (12,000 rpm, 15 seconds×3 times). The homogenate was centrifuged at 4° C. under 1,000 g for 10 minutes with a high speed cooling centrifuge to recover the supernatant. […] The pellets were recovered and suspended in a small quantity of the buffer for preparing membrane fractions. […]
Using the assay buffer, the human GPR7-expressed CHO cell membrane fraction was diluted in a final concentration of 1 μg/well and iodine-labeled hGPR7L-23 (SEQ ID NO:1) was diluted in a final concentration of […]. […] After 50 μl of a liquid scintillator was dispensed thereto, the radioactivity was counted on a Top Count (Packard) and the data was analyzed in triplet (FIG. 33). […]

Our source for the IC50 values is patent publication US7268212B2, “Ligand of G protein-coupled receptor protein and DNA thereof” (Takeda Pharmaceutical Company Limited, priority 2001, dated 2007).

No end group written: not given here.

A word on the IC50: it is the concentration that inhibits the measured activity by half. Low readings indicate higher potency, high ones lower potency. In turn, “WYKPTAGQGYYSVGRAAGLLSGFHRSPYA [Trp1-bovine GPR7L(29)]” displayed an IC50 of 0.31 nM.
